Data taken from patent US7166296B2, “Pharmaceutical formulations and ligands for use therein; mimetics for UEA-1” (Sarlan, Ltd., priority 2001, dated 2007).
Converted amounts (≈) assume the structure as drawn. Non-standard residues stand in square brackets, D forms with d. Residues, ends and D or L forms follow the SMILES beside them. *: point of attachment. Galloyl = O=C(c1cc(O)c(O)c(O)c1)*; Orn = NCCC[CH](N)C(=O)O; Dab = NCC[CH](N)C(=O)O

Key:
Parameters in all cases: species or system human
[1] = test system: UEA-1 binding sites on Caco-2 cell membrane preparations; experiment: Single tier competition assay: inhibition of biotinylated UEA-1 binding, compound and biotinylated UEA-1 incubated together; details: for Avg % Inhibtion: Single Tier Assay, library MSI 26
Procedure, shortened: (§1)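 Plates coated with Caco-2 membrane preparation (10 μg/ml, carbonate buffer pH 9.6) and BSA-blocked. Single tier: compound and biotinylated UEA-1 incubated together overnight. Two tier: compound incubated overnight with membranes first, biotinylated UEA-1 added next. Bound UEA-1 detected by streptavidin-HRP/OPD, OD490.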

[2] = test system: UEA-1 binding sites on Caco-2 cell membrane preparations; experiment: Two tier competition assay: compound incubated alone with membranes, biotinylated UEA-1 added in next step; details: for Avg % Inhibition: Two Tier Assay, library MSI 26
Procedure, shortened: as §1

[3] = test system: UEA-1 binding sites on Caco-2 cell membrane preparations; experiment: Competition assay of biotinylated UEA-1 binding, tier (single/two) not given; details: tier not printed, library TPI 1066
Method: The epithelial cell binding ability of compounds and mixtures obtained from synthetic combinatorial libraries was determined by competition assays. These assays were set up to measure the inhibition of binding of biotinylated UEA-1 to membrane preparations of the epithelial cell line Caco-2 (colon carcinoma cells-2), by compounds and mixtures of the combinatorial libraries. This cell line is a conventional model for epithelial cells.
Two competition inhibition assays were used in this case, namely single tier and two tier assays. These assays differed from each other in that in the single tier assay, the mixtures/compounds and the biotinylated UEA-1 were incubated together with the Caco-2 cell membrane preparations, while in case of the two-tier assay, the mixture/compounds were allowed to incubate alone with the cell membranes in the absence of biotinylated UEA-1, which was added in the next step. Addition of the extra step in the two-tier assay was to ensure that the compounds inhibiting the binding of biotinylated UEA-1 to the Caco-2 cell membranes were doing so by themselves binding to surface receptors on the Caco-2 cells and not to the biotinylated UEA-1. Each assay will be described in detail.
• 1. Confluent Caco-2 cell monolayers (grown in 75 cm^2 flasks for up to 1 week at 37° C. and 5% CO2) were washed twice in Dulbecco's PBS (DPBS). • 2. Cell monolayers were treated with 10 mM EDTA-DPBS for 5–10 min at 37° C. and cells were harvested by centrifugation at 1000 rpm for 5 min. • 3. Cells were washed 3 times in DPBS. • 4. […] The cells were homogenised for 30 sec. • 6. The homogenates were centrifuged in hard walled tubes at 40,000 rpm for 45 min at 4° C. • 7. […] The supernatant was removed and stored on ice. The procedure was repeated adding the second supernatant to the first. • 8. The protein concentration was determined using e.g. a Bio-Rad protein assay. • 9. All fractions were stored at −80° C. prior to use. Single Tier Assays: • 1. 96-well microtiter plates were coated with membrane preparations of Caco-2 cells either by allowing them to incubate on the plates for 2½ hours at room temperature or by incubating them overnight at 4° C. 100 μl of 10 μg/ml (in 0.05 M carbonate buffer, pH 9.6) of membrane preparation was added to each well. • 2. The plates were flicked out, patted dry and blocked with bovine serum albumin (BSA)/DPBS (200 μl/well) for 1 to 4 hours at room temperature after which they were washed three times in water. • 3. […] Control wells were also set up in which the Caco-2 cell membrane preparations were incubated with unconjugated UEA-1. […] Following overnight incubation the plates were washed thoroughly (3–6 times). The plates were flicked out, patted dry and biotinylated UEA-1 was detected with commercial Streptavidin conjugated to horseradish peroxidase (HRP) (CalBiochem). […] The plates were left to incubate for an hour at room temperature. • 6. The plates were then washed 3–6 times and the biotin-streptavidin binding was detected by adding an HRP substrate OPD (orthophenyl diamine) to each well. 100 μl/well of this substrate at a final concentration of 1.6 mg/ml was added to each well. Before adding to the wells, this substrate was activated by addition of 50 μl of 3% H2O2 per plate and the reaction was allowed to develop in the dark. • 7. The reaction was stopped by adding 50 μl of 4 N H2SO4 to each well after approximately 5–10 minutes or when sufficient colour had developed. The OD490 (absorbance at 490 nm) of each well was measured using a conventional 96 well plate reading spectrophotometer. Two Tier Assays: • 1. 96 well plates were coated with Caco-2 cell membrane preparations in the same manner as described in the single tier assay. • 2. […] 100 μl at these final concentrations were added to each well. • 4. The plates were then left to incubate overnight, a step that would allow the mixtures and compounds to interact with the Caco-2 cell membranes without the presence of the competitor (biotinylated UEA-1) itself. • 5. […]

[4] = Table 8, galloyl constructs, read-out: IC 50 (uM) 1st tier (converted)
[5] = Table 8, galloyl constructs, read-out: IC 50 (uM) 2nd tier
[6] = 50 μg/ml, first pair of columns
[7] = 50 μg/ml, second pair of columns
[8] = 250 μg/ml, first pair of columns
[9] = 250 μg/ml, second pair of columns
[10] = library MSI 27, read-out: Single Tier Assay IC50
[11] = library MSI 27, read-out: Two Tier Assay IC50

| Structure (SMILES) | IC 50 (ug/ml) 1st tier ([1]; Table 8, galloyl constructs) | IC50 [1, 4] | IC 50 (ug/ml) 2nd tier ([2]; Table 8, galloyl constructs) | IC50 [2, 5] | Single Tier Assay IC50 ([1]; library MSI 27) | IC50 [1, 10] | IC50 [2, 11] | Avg % Inhibtion ([1]; 62.5 μg/ml) | Avg % Inhibtion ([1]; 250 μg/ml) | Avg % Inhibition ([2]; 62.5 μg/ml) | Avg % Inhibition ([2]; 250 μg/ml) | Av % Inhibition [3, 6] | Av % Inhibition [3, 7] | Av % Inhibition [3, 8] | Av % Inhibition [3, 9] | Two Tier Assay IC50 ([2]; library MSI 27) |
| --- | --- | --- | --- | --- | --- | --- | --- | --- | --- | --- | --- | --- | --- | --- | --- | --- |
| CC(=O)NC(CCNC(=O)c1cc(O)c(O)c(O)c1)C(=O)NC(CCNC(=O)c1cc(O)c(O)c(O)c1)C(=O)NC(CCNC(=O)c1cc(O)c(O)c(O)c1)C(=O)NC(CCNC(=O)c1cc(O)c(O)c(O)c1)C(N)=O (stereo not drawn) [MSI 34 #22] (Ac-[Dab](Galloyl)[Dab](Galloyl)[Dab](Galloyl)[Dab](Galloyl)-NH2; configuration not given here) | 3 µg/mL (≈ 2.81 µM) | 3 µM | 1 µg/mL (≈ 0.936 µM) | 1 µM |  |  |  |  |  |  |  |  |  |  |  |  |
| CC(=O)NC(CCCNC(=O)c1cc(O)c(O)c(O)c1)C(=O)NC(CCCNC(=O)c1cc(O)c(O)c(O)c1)C(=O)NC(CCCNC(=O)c1cc(O)c(O)c(O)c1)C(=O)NC(CCCNC(=O)c1cc(O)c(O)c(O)c1)C(N)=O (stereo not drawn) [MSI 34 #23] (Ac-[Orn](Galloyl)[Orn](Galloyl)[Orn](Galloyl)[Orn](Galloyl)-NH2; configuration not given here) | 6 µg/mL (≈ 5.34 µM) | 5 µM | 1 µg/mL (≈ 0.89 µM) | 1 µM |  |  |  |  |  |  |  |  |  |  |  |  |
| NC(=O)C(CNC(=O)C(CNC(=O)c1cc(O)c(O)c(O)c1)NC(=O)c1cc(O)c(O)c(O)c1)NC(=O)CCCCCNC(=O)C(CNC(=O)c1cc(O)c(O)c(O)c1)NC(=O)c1cc(O)c(O)c(O)c1 (stereo not drawn) [MSI 39 #4] | 6 µg/mL (≈ 6.02 µM) | 5 µM | 0.8 µg/mL (≈ 0.802 µM) | 0.7 µM |  |  |  |  |  |  |  |  |  |  |  |  |
| CC(=O)N[C@H](CCCCNC(=O)c1cc(O)c(O)c(O)c1)C(=O)N[C@H](CCCCNC(=O)c1cc(O)c(O)c(O)c1)C(=O)N[C@H](CCCCNC(=O)c1cc(O)c(O)c(O)c1)C(=O)N[C@H](CCCCNC(=O)c1cc(O)c(O)c(O)c1)C(N)=O [MSI 39 #12] (Ac-[dK](Galloyl)[dK](Galloyl)[dK](Galloyl)[dK](Galloyl)-NH2) | 8 µg/mL (≈ 6.78 µM) | 7 µM | 3 µg/mL (≈ 2.54 µM) | 2 µM |  |  |  |  |  |  |  |  |  |  |  |  |
| COC(=O)c1cc(O)c(O)c(O)c1 [Methyl 3,5,4-trihydroxybenzoate, reference compound] |  |  |  |  |  |  |  | 1% | 4.5% | −11% | −8% |  |  |  |  |  |
| COc1ccc(C(=O)O)cc1OC [compound 10, 3,4-Dimethoxybenzoic acid] |  |  |  |  |  | 711 µM | 356 µM |  |  |  |  | −65% | 24% | 41% | 66% | 125.00 µg/mL |
| COc1cc(C(=O)O)cc(OC)c1OC [compound 20, 3,4,5-trimethoxybenzoic acid] |  |  |  |  |  | 212 µM | 212 µM |  |  |  |  | −121% | 52% | 24% | 75% |  |
| COc1ccc(C(=O)O)cc1OC [compound 26, 3,4-Dimethoxybenzoic acid] |  |  |  |  | 125.00 µg/mL | 163 µM | 112 µM |  |  |  |  | −116% | 39% | −2% | 56% | 85.62 µg/mL |

The next lines start with results.

| IC 50 (ug/ml) 1st tier ([1]; Table 8, galloyl constructs) | IC50 [1, 4] | IC 50 (ug/ml) 2nd tier ([2]; Table 8, galloyl constructs) | IC50 [2, 5] | Single Tier Assay IC50 ([1]; library MSI 27) | IC50 [1, 10] | IC50 [2, 11] | Structure (SMILES) | Avg % Inhibtion ([1]; 62.5 μg/ml) | Avg % Inhibtion ([1]; 250 μg/ml) | Avg % Inhibition ([2]; 62.5 μg/ml) | Avg % Inhibition ([2]; 250 μg/ml) | Av % Inhibition [3, 6] | Av % Inhibition [3, 7] | Av % Inhibition [3, 8] | Av % Inhibition [3, 9] | Two Tier Assay IC50 ([2]; library MSI 27) |
| --- | --- | --- | --- | --- | --- | --- | --- | --- | --- | --- | --- | --- | --- | --- | --- | --- |
|  |  |  |  | 168.10 µg/mL | 333 µM | 259 µM | CCOC(=O)c1c(OC)cc(C(=O)O)cc1OC [compound 5, 4-ethoxycarbonyl-3,5-dimethoxybenzoic acid] |  |  |  |  | 16% | 39% | 54% | 51% | 130.70 µg/mL |
|  |  |  |  | 125.00 µg/mL | 299 µM | 412 µM | O=C(O)c1cc(O)cc(O)c1 [compound 8, 3,5-dihydroxybenzoic acid] |  |  |  |  | 59% | 0% | 85% | 50% | 171.90 µg/mL |
|  |  |  |  |  | 284 µM | 284 µM | O=C(O)c1ccc(O)cc1 [compound 23, 4-Hydroxybenzoic acid] |  |  |  |  | 52% | 39% | 21% | 59% |  |
|  |  |  |  |  | 307 µM | 307 µM | COc1cc(C(=O)O)cc(OC)c1O [compound 25, Syringic acid] |  |  |  |  | −173% | 65% | 66% | 63% |  |
